From patent publication US20170305922A1, “CARM1 INHIBITORS AND USES THEREOF” (Epizyme, Inc., priority 2014, published 2017)

How the values were obtained:
[1] = system: asymmetric di-methyl PABP1 in RKO cells; test: RKO methylation assay: In Cell Western (ICW) for asymmetric di-methyl PABP1 (PABP1me2a); conditions: Homo sapiens, RKO, 48 h, Cellular-based (PABP1me2a) ICW (In Cell Western) assay
Description: RKO adherent cells were purchased from ATCC (American Type Culture Collection), Manassas, Va., USA. DMEM/Glutamax medium, penicillin-streptomycin, heat inactivated fetal bovine serum, 0.05% trypsin and D-PBS were purchased from Life Technologies, Grand Island, N.Y., USA. Odyssey blocking buffer, 800CW goat anti-rabbit IgG (H+L) antibody, and Licor Odyssey infrared scanner were purchased from Licor Biosciences, Lincoln, Nebr., USA. Asymmetric di-methyl PABP1 antibody was purchased from Cell Signaling Technology, Danvers, Mass., USA. Methanol was purchased from VWR, Franklin, Mass., USA. 10% Tween 20 was purchased from KPL, Inc., Gaithersburg, Md., USA. Paraformaldehyde (PFA) was purchased from EM Sciences. DRAQ5 was purchased from Biostatus Limited, Leicestershire, UK.
RKO adherent cells were maintained in growth medium (DMEM/Glutamax medium supplemented with 10% v/v heat inactivated fetal bovine serum and 100 units/mL penicillin-streptomycin) and cultured at 37° C. under 5% CO2.
Cell treatment, In Cell Western (ICW) for detection of asymmetric di-methyl PABP1 and DNA content: RKO cells were seeded in assay medium at a concentration of 30,000 cells per mL to a poly-D-lysine coated 384 well culture plate (BD Biosciences 356697) with 50 μL per well. Compound (100 nL) from a 96-well source plate was added directly to 384 well cell plate. Plates were incubated at 37° C., 5% CO2 for 48 hours. After two days of incubation, plates were brought to room temperature outside of the incubator for ten minutes and blotted on paper towels to remove cell media. Cells were fixed for 20 minutes at room temperature by adding 50 ul of 8% PFA followed by aspiration of supernatant with the Biotek EL406 plate washer. Cells were then permeabilized by addition of 50 μL of ice cold 100% methanol directly to each well and incubated for 30 min at room temperature. After 30 min, plates were transferred to a Biotek EL406 plate washer and washed 2 times with 100 μL per well of wash buffer (1×PBS). Next 60 μL per well of Odyssey blocking buffer (Odyssey Buffer with 0.1% Tween 20 (v/v)) were added to each plate and incubated 1 hour at room temperature. Blocking buffer was removed and 20 μL per well of primary antibody was added (asymmetric-methyl PABP1) diluted 1:400 in Odyssey buffer with 0.1% Tween 20 (v/v)) and plates were incubated overnight (16 hours) at 4° C. Plates were washed 5 times with 100 μL per well of wash buffer. Next 20 μL per well of secondary antibody was added (1:800 800CW goat anti-rabbit IgG (H+L) antibody, 1:2000 DRAQ5 in Odyssey buffer with 0.1% Tween 20 (v/v)) and incubated for 1 hour at room temperature. The plates were washed 5 times with 100 μL per well wash buffer then 2 times with 100 μL per well of water. Plates were allowed to dry at room temperature then imaged on the Licor Odyssey machine which measures integrated intensity at 700 nm and 800 nm wavelengths. Both 700 and 800 channels were scanned.
First, the ratio for each well was determined by:
Each plate included fourteen control wells of DMSO only treatment (minimum inhibition) as well as fourteen control wells for maximum inhibition treated with 20 μM of a reference compound. The average of the ratio values for each control type was calculated and used to determine the percent […] for each test well in the plate. Reference compound was serially diluted three-fold in DMSO for a total of nine test concentrations, beginning at 20 μM.
Percent inhibition was determined and IC50 curves were generated using triplicate wells per concentration of compound.

Human CARM1 (PRMT4) = target: T1, Human CARM1 (PRMT4) (Homo sapiens, UniProt Q86X55); test: CARM1 enzyme assay on peptide substrates (3H-SAM Flashplate); conditions: Biochemical assay; CARM1 0.25 nM, 3H-SAM 30 nM, peptide 250 nM; read-out: Biochem IC50
T1 construct: Flag-CARM1-His was eluted with 200 ug/ml FLAG peptide in buffer A; made in house; host or cells: HEK 293F cells infected with recombinant baculovirus (pFastBacMam)
T1 sequence (Q86X55 1-585 isoform Q86X55-1): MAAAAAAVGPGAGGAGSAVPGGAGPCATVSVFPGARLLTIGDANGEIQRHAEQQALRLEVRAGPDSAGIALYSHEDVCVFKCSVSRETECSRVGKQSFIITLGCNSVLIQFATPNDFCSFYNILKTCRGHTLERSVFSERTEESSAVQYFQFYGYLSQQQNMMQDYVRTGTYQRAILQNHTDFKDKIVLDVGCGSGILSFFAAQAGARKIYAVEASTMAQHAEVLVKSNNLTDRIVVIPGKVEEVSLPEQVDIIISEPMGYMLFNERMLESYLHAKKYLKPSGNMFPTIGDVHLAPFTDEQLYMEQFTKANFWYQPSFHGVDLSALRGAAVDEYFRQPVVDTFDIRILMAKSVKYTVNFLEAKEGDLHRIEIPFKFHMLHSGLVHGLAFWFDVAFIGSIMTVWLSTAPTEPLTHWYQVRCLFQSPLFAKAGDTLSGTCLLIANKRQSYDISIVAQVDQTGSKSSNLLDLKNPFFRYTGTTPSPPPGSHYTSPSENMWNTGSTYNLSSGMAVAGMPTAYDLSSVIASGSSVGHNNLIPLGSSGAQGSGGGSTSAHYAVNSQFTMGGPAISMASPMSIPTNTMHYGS
Description: S-adenosylmethionine (SAM), S-adenosylhomocysteine (SAH), bicine, Tween20, dimethylsulfoxide (DMSO), bovine skin gelatin (BSG), sodium butyrate and Tris(2-carboxyethyl)phosphine hydrochloride solution (TCEP) were purchased from Sigma-Aldrich at the highest level of purity possible. ^3H-SAM was purchase from American Radiolabeled Chemicals with a specific activity of 80 Ci/mmol. 384-well streptavidin Flashplates were purchased from PerkinElmer.
Peptide representative of human histone H3 residues 16-30 was synthesized with an N-terminal linker-affinity tag motif and a C-terminal amide cap by 21st Century Biochemicals. […] The sequence was Biot-Ahx-[…]-amide and contained a monomethylated arginine at position 26 (SEQ ID NO.:1).
The gene sequence encoding isoform1 containing a deletion of amino acids 539-561 was amplified subsequently and subcloned into pFastBacMam (Viva Biotech).
Recombinant baculovirus were generated according to Bac-to-Bac kit instructions (Life Technologies). Protein over-expression was accomplished by infecting exponentially growing HEK 293F cell culture at 1.3×10^6 cell/ml with virus (MOI=10) in the presence of 8 mM sodium butyrate. Infections were carried out at 37° C. for 48 hours, harvested by centrifugation, and stored at −80° C. for purification.
Column was washed with 500 mM NaCl in buffer A and Flag-CARM1-His was eluted with 200 ug/ml FLAG peptide in buffer A. Pooled fractions were dialyzed in 20 mM Tris, 150 mM NaCl, 5% glycerol and 1 mM DTT, pH 7.8.
The assays were all performed in a buffer consisting of 20 mM Bicine (pH=7.6), 1 mM TCEP, 0.005% BSG, and 0.002% Tween 20, prepared on the day of use. Compounds in 100% DMSO (1 ul) were spotted into a polypropylene 384-well V-bottom plates (Greiner) using a Platemate Plus outfitted with a 384-channel head (Thermo Scientific). DMSO (1 ul) was added to Columns 11, 12, 23, 24, rows A-H for the maximum signal control and 1 ul of SAH, a known product and inhibitor of CARM1, was added to columns 11, 12, 23, 24, rows I-P for the minimum signal control. A cocktail (40 ul) containing the CARM1 enzyme was added by Multidrop Combi (Thermo-Fisher). The compounds were allowed to incubate with CARM1 for 30 min at room temperature, then a cocktail (10 ul) containing ^3H-SAM and peptide was added to initiate the reaction (final volume=51 ul). The final concentrations of the components were as follows: CARM1 was 0.25 nM, ^3H-SAM was 30 nM, peptide was 250 nM, SAH in the minimum signal control wells was 1 mM, and the DMSO concentration was 2%. The assays were stopped by the addition of non-radiolabeled SAM (10 ul) to a final concentration of 300 uM, which dilutes the ^3H-SAM to a level where its incorporation into the peptide substrate is no longer detectable. 50 ul of the reaction in the 384-well polypropylene plate was then transferred to a 384-well Flashplate and the biotinylated peptides were allowed to bind to the streptavidin surface for at least 1 hour before being washed once with 0.1% Tween20 in a Biotek ELx405 plate washer. The plates were then read in a PerkinElmer TopCount plate reader to measure the quantity of ^3H-labeled peptide bound to the Flashplate surface, measured as disintegrations per minute (dpm) or alternatively, referred to as counts per minute (cpm).
where dpm=disintegrations per minute, cmpd=signal in assay well, and min and max are the respective minimum and maximum signal controls.
where top and bottom are the normally allowed to float, but may be fixed at 100 or 0 respectively in a 3-parameter fit. The Hill Coefficient normally allowed to float but may also be fixed at 1 in a 3-parameter fit. Y is the % inhibition and X is the compound concentration.

| IC50 [1] | IC50 (Human CARM1 (PRMT4)) | SMILES |
| --- | --- | --- |
| 412 nM | 3.7 nM | CNC[C@@H](O)COc1ccc(Cl)c(-c2nc(-c3c(C)noc3C)c(C)c(N3Cc4c(n(C)c(=O)n(C)c4=O)C3)n2)c1 [Example 35] |
| 32 nM | 2 nM | CNC[C@@H](O)COc1ccc(Cl)c(-c2nc(-c3c(C)noc3C)c(C)c(N3Cc4ccc(Cl)nc4C3)n2)c1 [Example 39] |
| 391 nM | 2.8 nM | CNC[C@@H](O)COc1ccc(Cl)c(-c2nc(-c3c(C)noc3C)c(C)c(N3Cc4nc5n(c(=O)c4C3)CCC5)n2)c1 [Example 40] |
| 84 nM | 10 nM | CNC[C@@H](O)COc1ccc(Cl)c(-c2nc(-c3c(C)noc3C)c(C)c(N3CC4(CN(C(=O)OC)C4)C3)n2)c1 [Example 43] |
| > 20000 nM | 6.3 nM | CNC[C@@H](O)COc1ccc(Cl)c(-c2nc(-c3c(C)noc3C)c(C)c(N3Cc4c(n5c(nc4=O)CCC5)C3)n2)c1 [Example 47] |
| 399 nM | 7.7 nM | CNC[C@@H](O)COc1ccc(Cl)c(-c2nc(-c3c(C)noc3C)c(C)c(N3CC4(CCN(S(C)(=O)=O)C4)C3)n2)c1 [Example 49] |
| 155 nM | 8.8 nM | CNC[C@@H](O)COc1ccc(Cl)c(-c2nc(-c3c(C)noc3C)c(C)c(N3CC4(CCN(C5COC5)C4)C3)n2)c1 [Example 50] |

More lines, now with the values behind:

| SMILES | IC50 [1] | IC50 (Human CARM1 (PRMT4)) |
| --- | --- | --- |
| CNC[C@@H](O)COc1ccc(Cl)c(-c2nc(-c3c(C)noc3C)c(C)c(N3C[C@H]4CN(C(=O)C(F)(F)F)C[C@H]4C3)n2)c1 [Example 31] | 2150 nM | 1.4 nM |
| CNC[C@@H](O)COc1ccc(Cl)c(-c2nc(-c3c(C)noc3C)c(C)c(N3CC4(CCN(CC(F)F)C4)C3)n2)c1 [Example 32] | 53 nM | 7 nM |
| CNC[C@@H](O)COc1ccc(Cl)c(-c2nc(-c3c(C)noc3C)c(C)c(N3CC4(CCN(C(=O)N(C)C)CC4)C3)n2)c1 [Example 33] | 83 nM | 7.2 nM |
| CNC[C@@H](O)COc1ccc(Cl)c(-c2nc(-c3c(C)noc3C)c(C)c(N3Cc4c(n(C)c(=O)n(C)c4=O)C3C)n2)c1 (some centres unmarked) [Example 34] | 120 nM | 5.1 nM |
| CNC[C@@H](O)COc1ccc(Cl)c(-c2nc(-c3c(C)noc3C)c(C)c(N3Cc4cnc(C5CC5)cc4C3)n2)c1 [Example 36] | 49 nM | 2.4 nM |
| CCc1cc2c(cn1)CN(c1nc(-c3cc(OC[C@H](O)CNC)ccc3Cl)nc(-c3c(C)noc3C)c1C)C2 [Example 37] | 37 nM | 2.6 nM |
| CNC[C@@H](O)COc1ccc(F)c(-c2nc(-c3c(C)noc3C)c(C)c(N3CC4(CCN(CC(F)F)C4)C3)n2)c1 [Example 38] | 76 nM | 5.7 nM |
| CNC[C@@H](O)COc1ccc(Cl)c(-c2nc(-c3c(C)noc3C)c(C)c(N3CC4(CN(C(=O)N(C)C)C4)C3)n2)c1 [Example 41] | 546 nM | 8.7 nM |
| CNC[C@@H](O)COc1ccc(Cl)c(-c2nc(-c3c(C)noc3C)c(C)c(N3CC4(C3)CN(S(C)(=O)=O)C4)n2)c1 [Example 42] | 406 nM | 10.4 nM |
| CNC[C@@H](O)COc1ccc(Cl)c(-c2nc(-c3c(C)noc3C)c(C)c(N3Cc4cnc(C)cc4C3)n2)c1 [Example 44] | 27 nM | 2.9 nM |
| CNC[C@@H](O)COc1ccc(Cl)c(-c2nc(-c3c(C)noc3C)c(C)c(N3CC4(CCN(CC(F)(F)F)C4)C3)n2)c1 [Example 45] | 40 nM | 11.9 nM |
| CNC[C@@H](O)COc1ccc(Cl)c(-c2nc(-c3c(C)noc3C)c(C)c(N3CC4(CCN(CC(F)(F)F)CC4)C3)n2)c1 [Example 46] | 35 nM | 17.4 nM |
| CNC[C@@H](O)COc1ccc(Cl)c(-c2nc(-c3c(C)noc3C)c(C)c(N3CC4(CCN(C(=O)N(C)C)C4)C3)n2)c1 [Example 48] | 238 nM | 12.7 nM |
| CNC[C@@H](O)COc1ccc(Cl)c(-c2nc(-c3c(C)noc3C)c(C)c(N3CC4(CCN(C(C)=O)CC4)C3)n2)c1 [Example 51] | 356 nM | 10.8 nM |
| CNC[C@@H](O)COc1ccc(Cl)c(-c2nc(-c3c(C)noc3C)c(C)c(N3CC4(CCN(S(C)(=O)=O)CC4)C3)n2)c1 [Example 52] | 230 nM | 7.3 nM |
